Experimental data published in ChEMBL document CHEMBL1201862, “PubChem BioAssay data set” (2004).
The source made the active and inactive calls.

Experiments:
[1] = biological target: Lysosomal acid glucosylceramidase (Homo sapiens, UniProt P04062); assay: Dose response cell-based high throughput screening assay to identify enhancers of beta-glucosidase activity. [Related pubchem assays: 784 ]; assay type: functional
[2] = loss of viability in HepG2 cells – cell-based, CellTiter-Glo, cherry-picked, cytotoxicity control for Shn3 inhibitor project, dose response (AID 624134); assay type: functional
Protein RecA = biological target: T1, Protein RecA (Mycobacterium tuberculosis, UniProt P9WHJ3); assay: Fluorescence Cell-Free Homogeneous Dose Retest to Identify Inhibitors of RecA-Intein Splicing Activity. [Related pubchem assays (depositor defined):AID2097, AID2223, AID489010, AID492950]; assay type: functional
T1 sequence (P9WHJ3 whole entry): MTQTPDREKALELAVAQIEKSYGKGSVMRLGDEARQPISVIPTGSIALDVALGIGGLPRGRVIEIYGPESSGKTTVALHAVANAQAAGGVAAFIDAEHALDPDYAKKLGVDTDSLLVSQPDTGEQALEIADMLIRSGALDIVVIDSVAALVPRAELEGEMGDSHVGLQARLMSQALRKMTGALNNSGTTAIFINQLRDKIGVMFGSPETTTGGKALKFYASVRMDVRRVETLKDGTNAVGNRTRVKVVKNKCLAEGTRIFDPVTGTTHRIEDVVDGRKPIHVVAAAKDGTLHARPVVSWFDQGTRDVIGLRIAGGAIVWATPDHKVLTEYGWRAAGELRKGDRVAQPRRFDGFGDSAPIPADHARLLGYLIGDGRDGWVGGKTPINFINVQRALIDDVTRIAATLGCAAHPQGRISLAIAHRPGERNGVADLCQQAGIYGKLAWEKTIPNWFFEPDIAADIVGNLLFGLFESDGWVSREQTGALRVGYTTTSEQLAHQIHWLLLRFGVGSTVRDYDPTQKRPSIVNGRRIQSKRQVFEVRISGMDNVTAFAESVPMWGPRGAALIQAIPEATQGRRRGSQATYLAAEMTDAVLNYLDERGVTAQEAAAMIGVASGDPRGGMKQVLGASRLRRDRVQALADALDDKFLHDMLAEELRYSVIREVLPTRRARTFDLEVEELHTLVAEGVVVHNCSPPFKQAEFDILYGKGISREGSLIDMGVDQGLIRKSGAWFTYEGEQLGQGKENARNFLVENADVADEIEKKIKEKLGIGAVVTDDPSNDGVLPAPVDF

[3] = biological target: Neurotensin receptor type 1 (Homo sapiens, UniProt P30989); assay type: functional;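 note: Image-based confirmatory dose-response assay measuring agonist activity at NTR1; NTR1-expressing U2OS osteosarcoma cells imaged for beta-arrestin GFP spot formation; agonist potency where compounds increase beta-arrestin recruitment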
[4] = non-specific 3'UTR reporter inhibition in Clone20-Shn3RL – cell-based, Renilla luciferase, cherry-picked, counter-screen for Shn3 inhibitor project, dose response (AID 624133); assay type: functional
[5] = reduction of Shn3 3'UTR-driven luciferase in osteoblasts – cell-based, Clone20 osteoblasts, firefly luciferase, cherry-picked, dose response (AID 624132); assay type: functional;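 note: firefly luciferase luminescence from reporter carrying the Shn3 3'UTR in osteoblasts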
[6] = biological target: T2, Replicative DNA helicase DnaB (Mycobacterium tuberculosis, UniProt P9WMR3); assay: DnaB intein splicing inhibitors, dose response, biochemical, cell-free fluorescence (AID 449749); assay type: functional
T2 sequence (P9WMR3 whole entry): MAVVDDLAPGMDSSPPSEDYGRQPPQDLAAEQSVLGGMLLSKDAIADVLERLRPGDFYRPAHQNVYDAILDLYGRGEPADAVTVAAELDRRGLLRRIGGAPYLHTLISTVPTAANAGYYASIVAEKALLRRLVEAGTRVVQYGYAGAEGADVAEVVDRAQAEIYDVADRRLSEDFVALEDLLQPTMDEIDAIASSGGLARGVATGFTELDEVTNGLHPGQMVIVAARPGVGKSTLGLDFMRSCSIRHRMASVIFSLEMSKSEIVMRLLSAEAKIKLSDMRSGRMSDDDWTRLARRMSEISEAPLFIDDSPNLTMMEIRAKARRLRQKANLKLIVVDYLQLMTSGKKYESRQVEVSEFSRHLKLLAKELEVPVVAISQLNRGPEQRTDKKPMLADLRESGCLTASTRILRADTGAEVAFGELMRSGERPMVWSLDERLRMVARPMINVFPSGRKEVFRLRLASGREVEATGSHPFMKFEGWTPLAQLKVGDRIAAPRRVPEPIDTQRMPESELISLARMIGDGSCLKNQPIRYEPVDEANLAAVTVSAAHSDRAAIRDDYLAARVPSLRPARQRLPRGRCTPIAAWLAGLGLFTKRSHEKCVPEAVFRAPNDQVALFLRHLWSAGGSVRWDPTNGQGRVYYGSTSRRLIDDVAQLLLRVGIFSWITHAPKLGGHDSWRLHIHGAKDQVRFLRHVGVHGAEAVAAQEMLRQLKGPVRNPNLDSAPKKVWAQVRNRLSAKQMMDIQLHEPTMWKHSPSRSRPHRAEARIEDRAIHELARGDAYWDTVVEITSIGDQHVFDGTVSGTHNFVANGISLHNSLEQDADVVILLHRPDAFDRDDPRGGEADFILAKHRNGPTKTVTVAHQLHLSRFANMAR

[7] = biological target: Peroxisome proliferator-activated receptor gamma/Nuclear receptor coactivator 3 (Homo sapiens, UniProt P37231); assay type: functional;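 note: agonist potency for raising coactivator recruitment to the receptor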
[8] = biological target: Peroxisome proliferator-activated receptor gamma/Nuclear receptor coactivator 2 (Homo sapiens, UniProt P37231); assay type: functional;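 note: agonist potency for raising coactivator recruitment to the receptor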
Peroxisome proliferator-activated receptor gamma/Nuclear receptor coactivator 2, sequence (P37231 whole entry): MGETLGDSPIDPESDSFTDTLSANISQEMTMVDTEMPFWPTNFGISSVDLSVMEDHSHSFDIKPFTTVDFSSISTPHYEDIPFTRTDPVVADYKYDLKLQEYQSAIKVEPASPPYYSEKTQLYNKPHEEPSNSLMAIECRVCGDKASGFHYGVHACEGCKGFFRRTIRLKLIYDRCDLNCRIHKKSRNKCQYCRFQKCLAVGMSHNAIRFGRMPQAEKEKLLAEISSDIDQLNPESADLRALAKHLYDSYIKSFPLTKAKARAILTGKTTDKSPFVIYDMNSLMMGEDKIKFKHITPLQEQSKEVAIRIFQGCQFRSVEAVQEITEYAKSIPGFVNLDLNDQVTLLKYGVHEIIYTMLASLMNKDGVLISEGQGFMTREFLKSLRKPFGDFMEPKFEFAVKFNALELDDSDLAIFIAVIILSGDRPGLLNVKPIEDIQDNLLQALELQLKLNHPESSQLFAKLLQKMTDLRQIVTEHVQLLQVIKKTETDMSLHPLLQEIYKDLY
Peroxisome proliferator-activated receptor gamma/Nuclear receptor coactivator 2, sequence (Q15596 whole entry, further chain): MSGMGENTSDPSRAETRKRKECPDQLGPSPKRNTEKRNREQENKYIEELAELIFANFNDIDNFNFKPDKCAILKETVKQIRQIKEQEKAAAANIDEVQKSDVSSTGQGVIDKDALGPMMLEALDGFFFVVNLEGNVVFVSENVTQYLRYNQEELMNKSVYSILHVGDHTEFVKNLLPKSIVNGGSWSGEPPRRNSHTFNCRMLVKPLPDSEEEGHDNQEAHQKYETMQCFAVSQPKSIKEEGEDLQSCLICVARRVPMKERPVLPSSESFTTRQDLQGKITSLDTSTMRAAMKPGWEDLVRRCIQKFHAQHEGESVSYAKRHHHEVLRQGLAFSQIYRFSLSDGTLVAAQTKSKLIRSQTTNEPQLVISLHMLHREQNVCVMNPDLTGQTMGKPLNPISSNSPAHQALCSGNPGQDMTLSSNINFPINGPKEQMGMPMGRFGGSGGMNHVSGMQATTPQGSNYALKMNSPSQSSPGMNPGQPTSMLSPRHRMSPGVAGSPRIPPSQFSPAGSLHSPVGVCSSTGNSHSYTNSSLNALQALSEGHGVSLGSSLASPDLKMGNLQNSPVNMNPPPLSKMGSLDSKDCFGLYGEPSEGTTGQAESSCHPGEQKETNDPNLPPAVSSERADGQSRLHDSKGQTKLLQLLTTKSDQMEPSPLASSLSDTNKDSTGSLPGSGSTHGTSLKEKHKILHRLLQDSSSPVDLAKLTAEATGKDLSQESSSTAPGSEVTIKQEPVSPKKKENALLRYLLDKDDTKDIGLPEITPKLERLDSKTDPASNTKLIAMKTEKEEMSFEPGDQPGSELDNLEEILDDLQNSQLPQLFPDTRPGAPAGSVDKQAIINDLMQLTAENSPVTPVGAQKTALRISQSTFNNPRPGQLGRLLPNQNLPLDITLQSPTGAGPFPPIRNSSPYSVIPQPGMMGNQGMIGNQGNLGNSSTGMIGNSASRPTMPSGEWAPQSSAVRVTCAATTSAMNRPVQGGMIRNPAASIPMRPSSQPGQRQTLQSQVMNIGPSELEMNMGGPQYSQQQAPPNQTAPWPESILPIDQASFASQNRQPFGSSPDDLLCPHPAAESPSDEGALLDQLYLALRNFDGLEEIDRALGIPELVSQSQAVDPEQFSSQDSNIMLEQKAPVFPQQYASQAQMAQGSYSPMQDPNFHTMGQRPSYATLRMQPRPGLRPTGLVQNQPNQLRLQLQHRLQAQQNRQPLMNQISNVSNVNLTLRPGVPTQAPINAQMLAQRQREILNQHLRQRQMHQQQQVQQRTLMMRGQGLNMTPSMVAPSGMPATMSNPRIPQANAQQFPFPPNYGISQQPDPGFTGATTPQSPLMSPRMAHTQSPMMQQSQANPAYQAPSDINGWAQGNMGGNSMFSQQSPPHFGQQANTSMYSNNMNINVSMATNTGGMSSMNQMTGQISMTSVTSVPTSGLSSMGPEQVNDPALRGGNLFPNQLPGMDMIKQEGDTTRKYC

[9] = biological target: Peroxisome proliferator-activated receptor gamma/Nuclear receptor coactivator 1 (Homo sapiens, UniProt P37231); assay type: functional;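 note: agonist potency as compounds enhance coactivator SRC-1 recruitment to PPARgamma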
Peroxisome proliferator-activated receptor gamma/Nuclear receptor coactivator 1, sequence (P37231 whole entry, the tested form may be a part): as the sequence (P37231 whole entry) above
Peroxisome proliferator-activated receptor gamma/Nuclear receptor coactivator 1, sequence (Q15788 whole entry, further chain, the tested form may be a part): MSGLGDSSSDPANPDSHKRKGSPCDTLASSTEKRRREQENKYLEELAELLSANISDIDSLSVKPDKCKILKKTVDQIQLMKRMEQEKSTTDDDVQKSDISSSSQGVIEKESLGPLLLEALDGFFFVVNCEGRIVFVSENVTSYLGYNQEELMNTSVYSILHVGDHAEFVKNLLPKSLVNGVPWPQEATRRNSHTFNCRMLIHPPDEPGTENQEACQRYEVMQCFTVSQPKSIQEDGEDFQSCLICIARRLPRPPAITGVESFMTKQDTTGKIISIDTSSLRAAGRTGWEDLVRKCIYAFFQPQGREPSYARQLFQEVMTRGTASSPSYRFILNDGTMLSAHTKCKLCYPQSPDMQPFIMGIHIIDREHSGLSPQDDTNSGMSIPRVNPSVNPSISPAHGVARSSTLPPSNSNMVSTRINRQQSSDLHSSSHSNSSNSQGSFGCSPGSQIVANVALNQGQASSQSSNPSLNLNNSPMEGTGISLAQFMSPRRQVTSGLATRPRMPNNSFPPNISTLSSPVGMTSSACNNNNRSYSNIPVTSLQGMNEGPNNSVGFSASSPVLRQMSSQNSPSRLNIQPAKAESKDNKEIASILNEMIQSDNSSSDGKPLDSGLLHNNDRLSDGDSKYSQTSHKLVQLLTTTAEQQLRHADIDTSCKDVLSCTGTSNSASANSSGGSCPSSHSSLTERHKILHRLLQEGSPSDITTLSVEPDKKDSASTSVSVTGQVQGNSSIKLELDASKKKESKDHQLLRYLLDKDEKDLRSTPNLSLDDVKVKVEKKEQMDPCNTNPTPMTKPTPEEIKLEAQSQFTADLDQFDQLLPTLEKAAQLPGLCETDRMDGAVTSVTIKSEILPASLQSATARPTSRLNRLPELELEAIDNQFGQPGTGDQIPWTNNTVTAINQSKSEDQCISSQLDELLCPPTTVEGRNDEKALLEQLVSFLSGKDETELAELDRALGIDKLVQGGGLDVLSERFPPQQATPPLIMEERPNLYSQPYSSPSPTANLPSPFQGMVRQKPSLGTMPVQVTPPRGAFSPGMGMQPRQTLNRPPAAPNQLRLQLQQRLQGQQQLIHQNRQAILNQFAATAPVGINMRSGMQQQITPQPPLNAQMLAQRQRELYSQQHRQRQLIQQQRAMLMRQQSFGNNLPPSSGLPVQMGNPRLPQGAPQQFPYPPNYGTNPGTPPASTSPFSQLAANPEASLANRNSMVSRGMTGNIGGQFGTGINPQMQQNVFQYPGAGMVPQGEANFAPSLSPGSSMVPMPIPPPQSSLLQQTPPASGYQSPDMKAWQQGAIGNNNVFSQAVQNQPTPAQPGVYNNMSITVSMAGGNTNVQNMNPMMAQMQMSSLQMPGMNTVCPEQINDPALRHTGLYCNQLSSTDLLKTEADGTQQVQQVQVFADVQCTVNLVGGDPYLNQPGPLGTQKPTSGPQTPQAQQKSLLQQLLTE

[10] = biological target: Disintegrin and metalloproteinase domain-containing protein 17 (Homo sapiens, UniProt P78536); assay: exosite inhibitors of ADAM17, dose response, biochemical (AID 743260)
Disintegrin and metalloproteinase domain-containing protein 17, sequence (P78536 whole entry, the tested form may be a part): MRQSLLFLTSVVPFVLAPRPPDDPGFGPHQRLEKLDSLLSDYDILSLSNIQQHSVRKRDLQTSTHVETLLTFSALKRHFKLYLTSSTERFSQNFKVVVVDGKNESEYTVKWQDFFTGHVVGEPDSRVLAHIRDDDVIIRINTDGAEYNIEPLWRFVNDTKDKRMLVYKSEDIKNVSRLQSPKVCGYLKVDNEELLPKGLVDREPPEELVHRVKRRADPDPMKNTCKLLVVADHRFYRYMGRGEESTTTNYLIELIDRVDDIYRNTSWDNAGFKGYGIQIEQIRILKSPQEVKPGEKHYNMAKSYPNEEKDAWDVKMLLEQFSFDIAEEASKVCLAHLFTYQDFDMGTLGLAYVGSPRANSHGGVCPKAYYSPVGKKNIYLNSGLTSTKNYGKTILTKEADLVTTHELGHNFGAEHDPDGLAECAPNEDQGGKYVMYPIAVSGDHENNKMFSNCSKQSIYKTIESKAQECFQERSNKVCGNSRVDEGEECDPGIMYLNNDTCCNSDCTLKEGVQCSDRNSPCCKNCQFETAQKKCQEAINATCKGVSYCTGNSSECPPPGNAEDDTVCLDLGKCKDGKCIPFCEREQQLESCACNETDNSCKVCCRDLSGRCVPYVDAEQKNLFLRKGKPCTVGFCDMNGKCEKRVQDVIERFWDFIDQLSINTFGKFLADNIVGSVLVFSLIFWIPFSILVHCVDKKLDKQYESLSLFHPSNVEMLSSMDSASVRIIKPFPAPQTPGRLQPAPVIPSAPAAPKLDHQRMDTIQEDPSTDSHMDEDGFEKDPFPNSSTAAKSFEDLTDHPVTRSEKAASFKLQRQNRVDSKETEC

NS3 = NS3 (Hepatitis C virus, UniProt A3EZJ3); assay: PubChem AID 2173; set-up: species or system Hepacivirus hominis
H9c2 = assay: cells; assay type: functional, cell-based; conditions: Rattus norvegicus, H9c2, Myocardium;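 note: confirmatory concentration-response retest of ultra-high-throughput screening hits for modulation of myocardial damage; cell death induced by hydrogen peroxide oxidative stress; compound pretreatment for 60 min then peroxide exposure for 2 h; potency is for protecting the cells against peroxide damage rather than for killing them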
[11] = inhibition of ADAM10 peptide cleavage – biochemical, FRET peptide substrate, recombinant human ADAM10, selectivity assay for ADAM17 exosite inhibitor project, dose response (AID 743259);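 note: ADAM10 enzyme cleaving a FRET peptide substrate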
Vero = assay: viability of Vero cells under compound – cytotoxicity control for flavivirus capping enzyme inhibitors (AID 588742); assay type: functional; conditions: Chlorocebus sabaeus
BJ [12] = assay: cells; assay type: functional, cell-based; conditions: Homo sapiens
[13] = DRD fibroblast viability loss – cell-based, non-viral oncogenic, luminescence, dose response (AID 1934); assay type: functional; conditions: Homo sapiens
[14] = luciferase reporter signal suppression in cells – H4 neuroglioma cells, luminescence, dose response (AID 1990); assay type: functional, cell-based
J774.A1 = assay: Confirmation of image-based Screening Assay for Inhibitors of Phagocytosis. [Related pubchem assays (depositor defined):AID1029, AID1643]; assay type: functional, cell-based; conditions: Mus musculus
[15] = alpha-synuclein stem-loop luciferase translation blockers – H4 neuroglioma cells, luminescence, confirmation (AID 1988); assay type: functional, cell-based
BJ [16] = assay: BJ-TERT fibroblast viability loss – cell-based, RAS-independent, luminescence, dose response (AID 1933); assay type: functional; conditions: Homo sapiens
BJ [17] = assay: BJ-TERT-LT-ST fibroblast viability loss – cell-based, RAS-independent, luminescence, dose response (AID 1935); assay type: functional; conditions: Homo sapiens;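 note: BJ fibroblasts immortalized with TERT plus LT and ST oncogenes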
[18] = HGIII-sPLA2 enzyme inhibition potency – biochemical, QFRET, IC50, dose response (AID 743457);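 note: green fluorescence rise as the enzyme cleaves BODIPY PC-A2 in liposomes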
[19] = Luminescence Cell-Based Dose Response HTS to Identify Inhibitors of 5'UTR Stem-Loop Driven Prion Protein mRNA Translation in H4 Neuroglioblastoma Cells. [Related pubchem assays: 1827 (Project Summary), 1813 (Primary HTS)]; assay type: functional
[20] = biological target: T3, Heat shock factor protein 1 (Mus musculus, UniProt P38532); assay: decrease of HSF1-responsive luciferase luminescence – cell-based, NIH3T3, dose retest, confirmation (AID 2382); assay type: functional;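 note: NIH3T3 fibroblasts with HSF1-driven luciferase reporter stressed by proteasome inhibitor MG132; luminescence from HSF1-driven luciferase expression after 8 hours of MG132 stress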
T3 sequence (P38532 whole entry): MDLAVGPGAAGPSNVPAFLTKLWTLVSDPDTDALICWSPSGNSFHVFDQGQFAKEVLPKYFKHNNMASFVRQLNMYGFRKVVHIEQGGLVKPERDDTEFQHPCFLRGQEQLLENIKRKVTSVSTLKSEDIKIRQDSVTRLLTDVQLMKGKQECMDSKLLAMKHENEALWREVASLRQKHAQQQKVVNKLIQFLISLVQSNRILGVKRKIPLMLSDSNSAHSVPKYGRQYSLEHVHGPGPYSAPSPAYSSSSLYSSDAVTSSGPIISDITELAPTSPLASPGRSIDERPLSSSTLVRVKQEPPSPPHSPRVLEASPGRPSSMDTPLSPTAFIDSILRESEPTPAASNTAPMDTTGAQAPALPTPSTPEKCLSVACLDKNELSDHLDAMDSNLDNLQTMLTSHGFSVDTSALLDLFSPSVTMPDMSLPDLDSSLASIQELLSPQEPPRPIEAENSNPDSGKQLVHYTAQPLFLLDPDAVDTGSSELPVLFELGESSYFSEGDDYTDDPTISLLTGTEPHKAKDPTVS

[21] = biological target: Polyadenylate-binding protein 1 (Homo sapiens, UniProt P11940); assay: blockers of PABP interaction with poly(A) – biochemical, fluorescence polarization, […] (AID 2014)
[22] = biological target: Eukaryotic translation initiation factor 4H (Homo sapiens, UniProt Q15056); assay: eIF4H binding inhibition – biochemical, uHTS, fluorescence polarization, translation initiation inhibitor project, primary screen (AID 2012)

CC(OC(=O)c1nsc(Cl)c1Cl)C(=O)NCc1cccs1 (configuration not stated)
EC50 [1]: > 50 µM (not active)

CC(CCc1ccccc1)NC(=O)COC(=O)c1ccc(S(C)(=O)=O)c([N+](=O)[O-])c1 (configuration not stated)
AC50 [2]: 39.4 µM (active)
EC50 (Protein RecA): 3.7 µM (active)
EC50 [3]: 9.29 µM (active)
AC50 [4]: 9.93 µM (active)
AC50 [5]: 3.34 µM (active)
AC50 [6]: 10 µM (active)

CCOC(=O)c1c(NC(=O)CSc2nc(C)cc(C)c2C#N)sc(C(C)=O)c1C
EC50 [7]: > 79.4 µM (not active)
EC50 [8]: > 79.4 µM (not active)
EC50 [9]: > 79.4 µM (not active)

CCOc1ccc(/C=C/C(=O)c2cc(Br)ccc(=O)c2O)cc1
IC50 [10]: 11.4 µM (inactive)
IC50 (NS3): 4.35 µM (active)
IC50 (H9c2): 6.72 µM (active)
IC50 [11]: 17.6 µM (inactive)
CC50 (Vero): 7 µM (active)

CCOc1cc(CNc2ccc3c(c2)OCCO3)cc(Br)c1OCC
EC50 (BJ [12]): 15.6 µM (active)
EC50 [13]: 1.6 µM (active)
EC50 [14]: 8.47 µM (inconclusive)
IC50 (J774.A1): 2.51 µM (active)
EC50 [15]: 1.58 µM (active)
EC50 (BJ [16]): 1.85 µM (active)
EC50 (BJ [17]): 2.43 µM (inconclusive)
IC50 [18]: > 122 µM (inactive)
EC50 [19]: > 120 µM (not active)
EC50 [20]: 2.48 µM (active)

O=C(NCC(=O)N1CCN(c2ccccc2O)CC1)c1ccc2c(c1)OCO2
IC50 [21]: > 100 µM (inactive)
IC50 [22]: 28.2 µM (active)
